Where two headings read alike, the source gives them in different places.
Assays:
Format in all cases: cell-based
AKT2 = molecular target: T1, AKT2 (Homo sapiens, UniProt P31751); test: Live cell AKT2 target engagement by NanoBRET competitive probe displacement; details: HEK293 cells transfected with kinase-NanoLuciferase fusion, 2 h at 37° C.
T1 construct: expressed in transfected cells; host or cells: HEK293
Summary of the method: (§1)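 Steps: overnight transfection of HEK293 with kinase-NanoLuc plasmids; addition of compound dilutions and tracer (~EC50); 2 h incubation at 37 °C; substrate plus extracellular luciferase inhibitor; luminescence at 460 and 600 nm. IC50 values came from fitting the BRET ratio to a Hill equation.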

AKT1 WT = molecular target: T2, AKT1 WT (Homo sapiens, UniProt P31749); test: Live cell AKT1 WT target engagement by NanoBRET competitive probe displacement; details: HEK293 cells transfected with kinase-NanoLuciferase fusion, 2 h at 37° C.
T2 construct: expressed in transfected cells; host or cells: HEK293
T2 sequence (P31749 whole entry, the tested form may be a part): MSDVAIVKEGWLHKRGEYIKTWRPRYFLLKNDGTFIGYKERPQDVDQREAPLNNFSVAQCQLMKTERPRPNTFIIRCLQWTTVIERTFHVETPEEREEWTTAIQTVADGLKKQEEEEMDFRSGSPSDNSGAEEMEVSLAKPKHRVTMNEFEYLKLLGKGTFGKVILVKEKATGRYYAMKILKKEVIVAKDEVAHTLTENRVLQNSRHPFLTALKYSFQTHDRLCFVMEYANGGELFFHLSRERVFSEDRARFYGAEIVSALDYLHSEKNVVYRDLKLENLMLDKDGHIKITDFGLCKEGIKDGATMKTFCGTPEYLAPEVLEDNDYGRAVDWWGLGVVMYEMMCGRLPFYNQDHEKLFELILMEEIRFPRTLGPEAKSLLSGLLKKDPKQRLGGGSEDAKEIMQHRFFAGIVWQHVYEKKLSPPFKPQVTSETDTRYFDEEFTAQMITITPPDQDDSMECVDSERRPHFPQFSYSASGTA
Summary of the method: as §1

[1] = system: LAPC4 prostate cancer cells; test: Antiproliferative effects in LAPC4 cells (CellTiter Glo); details: LAPC4 cells (AKT1 E17K allele), read-out: LAPC4 proliferation IC50
Summary of the method: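 Growth inhibition is gauged by intracellular ATP content, measured with CellTiter Glo 72 h after compound addition to 1,000 seeded cells per well. IC50 derives from a Hill equation fit.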

AKT1 E17K = molecular target: T3, AKT1 E17K (Homo sapiens, UniProt P31749, E17K); test: Live cell AKT1 E17K target engagement by NanoBRET competitive probe displacement; details: HEK293 cells transfected with kinase-NanoLuciferase fusion, 2 h at 37° C.
T3 construct: expressed in transfected cells; host or cells: HEK293
T3 sequence (P31749 whole entry E17K, the tested form may be a part): as the sequence (P31749 whole entry, the tested form may be a part) above, with E17K counted along it
Summary of the method: as §1

T1 sequence (P31751 whole entry, the tested form may be a part): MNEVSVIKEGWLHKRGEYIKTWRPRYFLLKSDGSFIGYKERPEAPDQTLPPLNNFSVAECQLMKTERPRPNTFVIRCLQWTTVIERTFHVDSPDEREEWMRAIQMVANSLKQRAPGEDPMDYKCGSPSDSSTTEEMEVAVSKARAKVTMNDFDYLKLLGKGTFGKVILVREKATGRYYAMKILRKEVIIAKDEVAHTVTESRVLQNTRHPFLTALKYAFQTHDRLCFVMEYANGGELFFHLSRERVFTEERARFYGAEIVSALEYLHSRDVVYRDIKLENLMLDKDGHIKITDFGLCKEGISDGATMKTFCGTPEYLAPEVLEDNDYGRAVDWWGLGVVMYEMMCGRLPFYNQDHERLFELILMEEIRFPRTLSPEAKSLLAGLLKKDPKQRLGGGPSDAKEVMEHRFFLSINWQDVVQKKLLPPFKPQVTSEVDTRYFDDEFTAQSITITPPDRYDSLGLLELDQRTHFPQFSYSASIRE

Structure (SMILES)	IC50 (AKT2) [nM]	IC50 (AKT1 WT) [nM]	IC50 ([1]; Homo sapiens, LAPC4, 72 h) [nM]	IC50 (AKT1 E17K) [nM]	IC50 ([1]; 72 h) [nM]
C=CC(=O)N1CCC(N[C@H]2CCc3cc(-n4c(-c5cccnc5N)nc5ccc(-c6nccs6)nc54)ccc32)CC1 [Example 159, 1-(4-{[(1S)-5-[2-(2-aminopyridin-3-yl)-5-(1,3-thiazol-2-yl)imidazo[4,5-b]pyridin-3-yl]-2,3-dihydro-1H-inden-1-yl]amino}piperidin-1-yl)prop-2-en-1-one]	146	20	71.2	56.2	–
C=CC(=O)N1CCN(N(C)C2CCc3cc(-n4c(-c5cccnc5N)nc5ccc(-n6cccn6)nc54)ccc32)CC1 (single isomer, unassigned) [Example 180, 1-(4-{[(1*)-5-[2-(2-aminopyridin-3-yl)-5-(pyrazol-1-yl)imidazo[4,5-b]pyridin-3-yl]-2,3-dihydro-1H-inden-1-yl](methyl)amino}piperazin-1-yl)prop-2-en-1-one]	160	244	–	18.6	625
C=CC(=O)N1C[C@@H]2C[C@H]1CC2N[C@H]1CCc2cc(-n3c(-c4cccnc4N)nc4ccc(-n5cccn5)nc43)ccc21 (single isomer, unassigned) [Example 135, 1-[(1S,4S,5*)-5-{[(1S)-5-[2-(2-aminopyridin-3-yl)-5-(pyrazol-1-yl)imidazo[4,5-b]pyridin-3-yl]-2,3-dihydro-1H-inden-1-yl]amino}-2-azabicyclo[2.2.1]heptan-2-yl]prop-2-en-1-one]	478	22.2	302	152	–
C=CC(=O)N1CCC(N[C@H]2CCc3cc(-n4c(-c5cccnc5N)nc5ccc(-n6cc(F)cn6)nc54)ccc32)CC1 [Example 254, (S)-1-(4-((5-(2-(2-aminopyridin-3-yl)-5-(4-fluoro-1H-pyrazol-1-yl)-3H-imidazo[4,5-b]pyridin-3-yl)-2,3-dihydro-1H-inden-1-yl)amino)piperidin-1-yl)prop-2-en-1-one]	36.8	89.7	93.3	10.9	–
C=CC(=O)N1CCC(N[C@H]2CCc3cc(-n4c(-c5cccnc5N)nc5ccc(-c6ncco6)nc54)ccc32)CC1 [Example 109, (S)-1-(4-((5-(2-(2-aminopyridin-3-yl)-5-(oxazol-2-yl)-3H-imidazo[4,5-b]pyridin-3-yl)-2,3-dihydro-1H-inden-1-yl)amino)piperidin-1-yl)prop-2-en-1-one]	454	24.9	3160	124	–
C=CC(=O)N1CCC(N[C@@H]2c3ccc(-n4c(-c5cccnc5N)nc5ccc(-n6cccn6)nc54)cc3CC2F)C(C)C1 (single isomer, unassigned) [Example 289, 1-[(3*,4*)-4-{[(1R,2*)-5-[2-(2-aminopyridin-3-yl)-5-(pyrazol-1-yl)imidazo[4,5-b]pyridin-3-yl]-2-fluoro-2,3-dihydro-1H-inden-1-yl]amino}-3-methylpiperidin-1-yl]prop-2-en-1-one]	145	799	–	19.6	682
C=CC(=O)N1CCC(N[C@H]2CCc3cc(-n4c(-c5cccnc5)nc5ccc(-n6cccn6)nc54)ccc32)CC1 [Example 153, (S)-1-(4-((5-(5-(1H-pyrazol-1-yl)-2-(pyridin-3-yl)-3H-imidazo[4,5-b]pyridin-3-yl)-2,3-dihydro-1H-inden-1-yl)amino)piperidin-1-yl)prop-2-en-1-one]	1080	26.9	362	168	–
Nc1ncccc1-c1nc2ccc(-n3cccn3)nc2n1-c1ccc2c(c1)CC[C@@H]2NC1CCN(C(=O)[C@@H]2CO2)CC1 [Example 123, 3-{3-[(1S)-1-({1-[(2S)-oxirane-2-carbonyl]piperidin-4-yl}amino)-2,3-dihydro-1H-inden-5-yl]-5-(pyrazol-1-yl)imidazo[4,5-b]pyridin-2-yl}pyridin-2-amine]	393	30.9	736	42.4	–
C=CC(=O)N1CCC(N[C@H]2CCc3cc(-n4c(-c5cccnc5N)nc5ccc(-n6cccn6)nc54)ccc32)C(C#N)C1 (single isomer, unassigned) [Example 156, (3*,4*)-1-acryloyl-4-(((S)-5-(2-(2-aminopyridin-3-yl)-5-(1H-pyrazol-1-yl)-3H-imidazo[4,5-b]pyridin-3-yl)-2,3-dihydro-1H-inden-1-yl)amino)piperidine-3-carbonitrile]	64.7	9.8	–	11.3	30.2

The next lines start with the values.

IC50 (AKT2) [nM]	IC50 (AKT1 WT) [nM]	IC50 ([1]; Homo sapiens, LAPC4, 72 h) [nM]	IC50 (AKT1 E17K) [nM]	IC50 ([1]; 72 h) [nM]	Structure (SMILES)
280	2160	2230	113	–	C=CC(=O)N1CCC(N[C@H]2CCc3cc(-n4c(-c5cccnc5F)nc5ccc(-n6cccn6)nc54)ccc32)CC1 [Example 251, 1-(4-{[(1S)-5-[2-(2-fluoropyridin-3-yl)-5-(pyrazol-1-yl)imidazo[4,5-b]pyridin-3-yl]-2,3-dihydro-1H-inden-1-yl]amino}piperidin-1-yl)prop-2-en-1-one]
70.3	183	120	14.3	–	C=CC(=O)N1CCC(N[C@H]2CCc3cc(-n4c(-c5cccnc5N)nc5c(C#N)cc(-n6cccn6)nc54)ccc32)CC1 [Example 315, 2-(2-aminopyridin-3-yl)-3-[(1S)-1-{[1-(prop-2-enoyl)piperidin-4-yl]amino}-2,3-dihydro-1H-inden-5-yl]-5-(pyrazol-1-yl)imidazo[4,5-b]pyridine-7-carbonitrile]
2640	147	–	652	1170	C=CC(=O)N1CCC(N[C@H]2CCc3cc(-n4c(-c5cccnc5N)nc5ccc(-n6cccn6)nc54)ccc32)CC12CCC2 (single isomer, unassigned) [Example 94, 1-((*)-8-(((S)-5-(2-(2-aminopyridin-3-yl)-5-(1H-pyrazol-1-yl)-3H-imidazo[4,5-b]pyridin-3-yl)-2,3-dihydro-1H-inden-1-yl)amino)-5-azaspiro[3.5]nonan-5-yl)prop-2-en-1-one]
51.5	12.1	–	29.6	68	C=CC(=O)N1CCC(N[C@H]2CCc3cc(-n4c(-c5cccnc5N)nc5ccc(-n6cccn6)nc54)ccc32)C[C@@H]1C (single isomer, unassigned) [Example 66, 1-((2S,4*)-4-(((S)-5-(2-(2-aminopyridin-3-yl)-5-(1H-pyrazol-1-yl)-3H-imidazo[4,5-b]pyridin-3-yl)-2,3-dihydro-1H-inden-1-yl)amino)-2-methylpiperidin-1-yl)prop-2-en-1-one]
358	1580	–	68.3	1110	C=CC(=O)N1CCC(N[C@@H]2c3ccc(-n4c(-c5cccnc5N)nc5ccc(-n6cccn6)nc54)cc3CC2F)C(C)C1 (single isomer, unassigned) [Example 291, 1-[(3*,4*)-4-{[(1R,2*)-5-[2-(2-aminopyridin-3-yl)-5-(pyrazol-1-yl)imidazo[4,5-b]pyridin-3-yl]-2-fluoro-2,3-dihydro-1H-inden-1-yl]amino}-3-methylpiperidin-1-yl]prop-2-en-1-one]
29.6	9.31	27.4	26.9	–	C=CC(=O)N1CCC(N[C@H]2CCc3cc(-n4c(-c5cccnc5N)nc5ccc(-c6cnn(C)n6)nc54)ccc32)CC1 [Example 160, 1-(4-{[(1S)-5-[2-(2-aminopyridin-3-yl)-5-(2-methyl-1,2,3-triazol-4-yl)imidazo[4,5-b]pyridin-3-yl]-2,3-dihydro-1H-inden-1-yl]amino}piperidin-1-yl)prop-2-en-1-one]
24.8	80.5	62.7	7.65	–	C=CC(=O)N1CCC(N[C@H]2CCc3cc(-n4c(-c5cccnc5N)nc5ccc(-n6ccc(OC)n6)nc54)ccc32)CC1 [Example 206, 1-(4-{[(1S)-5-[2-(2-aminopyridin-3-yl)-5-(3-methoxypyrazol-1-yl)imidazo[4,5-b]pyridin-3-yl]-2,3-dihydro-1H-inden-1-yl]amino}piperidin-1-yl)prop-2-en-1-one]
208	61.5	1570	243	–	C=C(F)C(=O)N1CCc2c(C(=O)N[C@H]3CCc4cc(-n5c(-c6cccnc6N)nc6ccc(-n7cccn7)nc65)ccc43)cccc21 [Example 18, (S)-N-(5-(2-(2-aminopyridin-3-yl)-5-(1H-pyrazol-1-yl)-3H-imidazo[4,5-b]pyridin-3-yl)-2,3-dihydro-1H-inden-1-yl)-1-(2-fluoroacryloyl)indoline-4-carboxamide]
250	50.1	216	81.6	–	C=CC(=O)N1CC(N[C@H]2CCc3cc(-n4c(-c5cccnc5N)nc5ccc(-n6cccn6)nc54)ccc32)C1 [Example 28, (S)-1-(3-((5-(2-(2-aminopyridin-3-yl)-5-(1H-pyrazol-1-yl)-3H-imidazo[4,5-b]pyridin-3-yl)-2,3-dihydro-1H-inden-1-yl)amino)azetidin-1-yl)prop-2-en-1-one]
511	20	287	35.9	–	C=CC(=O)N1CCC(N[C@@H]2c3ccc(-n4c(-c5cccnc5N)nc5ccc(-n6cccn6)nc54)cc3C[C@H]2F)CC1 [Example 75, 1-(4-(((1R,2R)-5-(2-(2-aminopyridin-3-yl)-5-(1H-pyrazol-1-yl)-3H-imidazo[4,5-b]pyridin-3-yl)-2-fluoro-2,3-dihydro-1H-inden-1-yl)amino)piperidin-1-yl)prop-2-en-1-one]

— patent publication US12570655B2, “Cysteine covalent modifiers of AKT1 and uses thereof” (Terremoto Biosciences, Inc., priority 2023, dated 2026)
